The results in this text go back to patent US20250171404A1, “PCNA INHIBITORS AND USES THEREOF” (CITY OF HOPE, priority 2022, published 2025).

The subject of one assay is Hela. Nature of the assay: Cell growth IC50, screening of AOH1160 analogs. In kind it is cell-based. The following applies: Homo sapiens. How it is done: (§1) FIG. 29. IC50 data for select compounds. The indicated cell lines were seeded at 10^4 cells per well in a 96 well plate. After allowing to attach to the plate overnight, cells were treated with various concentrations of the indicated compounds in triplicates for 72 hrs. The cell growth was measured by an SRB assay. The cell abundances under each treatment condition relative to the baseline were averaged and graphed ±S.D. The baseline is defined as the median value of the cell abundances under the treatment by the two lowest compound concentrations. The IC50 was calculated by the Prism program.

The subject of the next assay is A673. Briefly: Cell growth IC50, screening of AOH1160 analogs. In kind it is cell-based. The following applies: Homo sapiens. How it is done: as §1
A further assay has as its system A549. Nature of the assay: Cell growth IC50, screening of AOH1160 analogs. In kind it is cell-based. The following applies: Homo sapiens. As to the method:
as §1

The target in another assay is caPCNA (Homo sapiens, UniProt P12004). Briefly: Molecular probe binding in vitro.
caPCNA, sequence (P12004 whole entry): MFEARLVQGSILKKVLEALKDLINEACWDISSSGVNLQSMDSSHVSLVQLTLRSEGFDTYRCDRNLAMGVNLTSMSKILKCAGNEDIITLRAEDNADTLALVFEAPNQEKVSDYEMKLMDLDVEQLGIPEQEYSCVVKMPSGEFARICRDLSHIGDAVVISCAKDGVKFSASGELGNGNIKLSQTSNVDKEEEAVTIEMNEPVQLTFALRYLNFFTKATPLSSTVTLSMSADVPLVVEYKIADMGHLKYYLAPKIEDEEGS
In assay [1] the test system is SK-N-AS derived xenograft tumors. Nature of the assay: Survival of mice bearing xenograft tumors, AOH1996 with CPT-11. In kind it is in vivo, ES1^e/SCID mice. The following applies: AOH1996 80 mg/kg oral 8 d; CPT-11 15 mg/kg i.p. 3 d; vs untreated. As to the method:
FIGS. 4A-4H. Pharmacokinetics and anti-tumor growth activity of AOH1996 in vivo. FIG. 4A: After oral administration, the plasma concentrations of AOH1996 from three male and three female ES1^e/SCID mice at the indicated time points were averaged and graphed ±S.D. The inset contains PK parameters determined by a standard noncompartmental method. FIG. 4B: A similar PK study of AOH1996 was performed in dogs. FIGS. 4C-4E: Mice bearing the xenograft tumors of neuroblastoma (FIG. 4C: SK-N-BE(2)c), breast cancer (FIG. 4D: MDA-MB-468), and small-cell lung cancer (FIG. 4E: H82) were given vehicle only (black) or 40 mg/kg of AOH1996 (grey) twice daily immediately after the first measurement. Tumor sizes were measured by a dial caliper each week. Tumor volumes (0.4×L×W^2) were averaged and graphed ±S.E. (*, P<0.01). FIG. 4F: Animal body weight was monitored throughout the studies as an indicator of toxicity. […] FIG. 4G: The levels of phosphor-Chk1 (pChk1) and γH2A.X in SK-N-BE(2)c derived tumor samples were analyzed by IHC. […] The p values determined by the Log-rank (Mantel-Cox) test between combination treatment and each of the control groups are p=0.0003 (Combination vs. NoRx), p=0.005 (Combination vs. AOH1996 alone), and p=0.024 (Combination vs. CPT-11 alone). […]
In vivo tumor model. […] Tumor size and animal weight were measured weekly. […]

The test system of a further assay is H1753. Nature of the assay: Cell growth IC50, screening of AOH1160 analogs. In kind it is cell-based. As to the method:
as §1

A further assay has as its system MDA-MB-468. Nature of the assay: Cell growth IC50, screening of AOH1160 analogs. In kind it is cell-based. Particulars: Homo sapiens, MDA-MB-468; read-out: IC50 values. How it is done: as §1
The next assay deals with SK-N-AS. Briefly: Cell growth IC50, screening of AOH1160 analogs. In kind it is cell-based. Particulars: Homo sapiens. How it is done: as §1
For a further assay, the system named is H358. Nature of the assay: Cell growth IC50, screening of AOH1160 analogs. Particulars: Homo sapiens, NCI-H358. In kind it is cell-based. How it is done:
as §1

In a further assay the test system is SK-N-BE(2)c. Nature of the assay: Cell growth IC50, screening of AOH1160 analogs. In kind it is cell-based. The following applies: Homo sapiens. How it is done:
as §1

The next assay concerns RKO. Briefly: Cell growth IC50, screening of AOH1160 analogs. In kind it is cell-based. The following applies: Homo sapiens, read-out: IC50 values. As to the method: as §1
The subject of a further assay is OVCAR8. Nature of the assay: Cell growth IC50, screening of AOH1160 analogs. In kind it is cell-based. The following applies: Homo sapiens, OVCAR-8; OVCAR8; read-out: IC50 values. How it is done: as §1
In a further assay the test system is HCT-116. Briefly: Cell growth IC50, screening of AOH1160 analogs. In kind it is cell-based. The following applies: Homo sapiens, HCT-116; read-out: IC50 values. How it is done:
as §1

A further assay relates to A375. Briefly: Cell growth IC50, screening of AOH1160 analogs. In kind it is cell-based. The following applies: Homo sapiens, A-375. As to the method: as §1
For another assay, the system named is γH2A.X. Briefly: γH2A.X Western blot (DNA damage marker). In kind it is cell-based, human. The following applies: SK-N-AS; 500 nM AOH1996 and/or 50 μM DRB overnight.
A further assay relates to SK-N-DZ. Briefly: Cell growth IC50, screening of AOH1160 analogs. In kind it is cell-based. Particulars: Homo sapiens. How it is done:
as §1

Structures are written as SMILES. Like-named read-outs stand apart in the source and are kept apart here. A value given as a limit tells only on which side of the number the result lay.

As to `COc1cccc(Oc2ccccc2NC(=O)CNC(=O)c2c(C)cc(C)cc2C)c1` [AOH1996TMB, N-(2-((2-(3-methoxyphenoxy)phenyl)amino)-2-oxoethyl)-2,4,6-trimethylbenzamide], the IC50 is 6500 nM in the assay on Hela (HeLa, read-out: IC50 values); 6500 nM in the assay with Hela (FIG. 27, Hela, read-out: IC50); 5500 nM in the assay on A673 (FIG. 27, read-out: IC50); 5500 nM in the assay with A673 (read-out: IC50 values); 4700 nM with A549 (FIG. 27, read-out: IC50); 4700 nM in the assay on A549 (read-out: IC50 values).
In the case of `NCCCC[C@H](N)C(=O)O` [Lysine], the “binding to caPCNA as molecular probe” value on caPCNA is reported as “bound caPCNA tightly”.
As to `CCc1c2c(nc3ccc(OC(=O)N4CCC(N5CCCCC5)CC4)cc13)-c1cc3c(c(=O)n1C2)COC(=O)[C@]3(O)CC` [CPT-11, reference compound], in assay [1], the “increase of median survival” value is given as 34.6%.
Regarding `COc1cccc(Oc2ccccc2NC(=O)[C@H](C)NC(=O)c2cccc3ccccc23)c1` [AOH1996LA, (S)—N-(1-((2-(3-methoxyphenoxy)phenyl)amino)-1-oxopropan-2-yl)-1-naphthamide], the half-inhibitory concentration (IC50) was 1600 nM with H1753 (FIG. 26, H1752, read-out: IC50); 1600 nM in the assay with H1753 (H1753, read-out: IC50 values); 2300 nM in the assay with MDA-MB-468; 1500 nM in the assay on SK-N-AS (FIG. 26, AK-N-AS, read-out: IC50); 1500 nM in the assay on SK-N-AS (read-out: IC50 values); 1800 nM in the assay with H358 (FIG. 26, H358, read-out: IC50). The IC50 with H358 (read-out: IC50 values) came out at 1800 nM.
With `Cc1ccccc1Oc1ccccc1NC(=O)CNC(=O)c1cccc(C)c1C` [AOH-DMB-2CH3, 2,3-dimethyl-N-(2-oxo-2-((2-(o-tolyloxy)phenyl)amino)ethyl)benzamide], the IC50 is 1120 nM with SK-N-AS (read-out: IC50 values) and 1030 nM with SK-N-BE(2)c.
Consider `N[C@@H](CCC(=O)O)C(=O)O` [Glutamic acid], for which the “binding to caPCNA as molecular probe” value on caPCNA is listed as “bound caPCNA tightly”.
With `O=C(CNC(=O)c1cccc2ccccc12)Nc1ccccc1Sc1cccc(F)c1` [AOH1996S-3F, N-(2-((2-((3-fluorophenyl)thio)phenyl)amino)-2-oxoethyl)-1-naphthamide], the concentration for half-maximal inhibition (IC50) in the assay on RKO was 2320 nM; in the assay with OVCAR8, 1600 nM; in the assay on HCT-116, 2210 nM.
`COc1cccc(Sc2ccccc2NC(=O)CNC(=O)c2cccc3ccccc23)c1` [AOH1996S, N-(2-((2-((3-methoxyphenyl)thio)phenyl)amino)-2-oxoethyl)-1-naphthamide]: the IC50 with Hela (HeLa, read-out: IC50 values) was found to be 370 nM; in the assay with A375 it was 170 nM.
On to `O=C(CNC(=O)c1cccc2ccccc12)Nc1ccccc1Sc1ccc(F)cc1` [AOH1996S-4F, N-(2-((2-((4-fluorophenyl)thio)phenyl)amino)-2-oxoethyl)-1-naphthamide], for which the concentration for half-maximal inhibition (IC50) came out at 370 nM with SK-N-AS (read-out: IC50 values) and 350 nM with A375.
For the molecule `OC[C@H]1O[C@@H](n2cnc3cc(Cl)c(Cl)cc32)[C@H](O)[C@@H]1O` [DRB, reference compound], in the assay with γH2A.X, the “γH2A.X levels, AOH1996 with DRB” value is on record as “can suppress the DNA damage induced by AOH1996”.
In the case of `O=C(CNC(=O)c1cccc2ccccc12)Nc1c(Cl)cccc1Oc1ccccc1` [AOH1160-2-C1], the IC50 with SK-N-DZ, in the assay on SK-N-AS (read-out: IC50 values) and with SK-N-BE(2)c was more than 10000 nM throughout.
